The values that follow come from patent publication US20240043444A1, “METHODS FOR TREATING SPINOCEREBELLAR ATAXIA TYPE 3” (PTC Therapeutics, Inc., priority 2021, published 2024).

For assay [1], the system named is Endogenous Total ATXN3 (tATXN3) Protein. Put plainly: Endogenous Total ATXN3 (tATXN3) Protein Assay (MSD immunoassay of cell lysates). The following applies: cells incubated with compound 48 h; 7-point concentration curve; MSD plate readout. It counts as cell-based. Here is the method:
Meso Scale Discovery (MSD) 96-well or 384-well plates were coated overnight at 4° C. with Ataxin 3 mouse monoclonal antibody (Invitrogen, MA3-082) at a concentration of […] in PBS (30 μL per well). Plates were then washed three times with 300 μL wash buffer (0.05% TWEEN®-20, polyethylene glycol sorbitan monolaurate, in PBS) and blocked (Meso Scale Diagnostics, R93BA-1; 5% BSA in PBS) for 2 h at room temperature with rotational shaking and then washed three times with wash buffer.
(§1) Test compounds were serially diluted 3.16-fold in 100% DMSO to generate a 7-point concentration curve. Aliquots of 0.5 μL of diluted compounds were transferred to a 96-well flat bottom plate by a liquid handler. An aliquot of 0.5 μL DMSO was also transferred to separate wells and used as controls. Duplicate samples were set up for each compound concentration and for the DMSO control.
Cells were thawed and incubated in cell culture media (DMEM, 10% FBS, and 1% antibiotic cocktail) for 72 h. Cells were trypsinized, counted, and re-suspended to a concentration of 100,000 cells/mL in cell culture media. A 100 μL aliquot of the cell suspensions were plated at 10,000 cells per well in the compound containing 96 well microtiter plate and incubated for in a cell culture incubator (37° C., 5% CO2, 100% relative humidity). After 48 h, the medium was removed and 50-100 μL of lysis buffer (Meso Scale Diagnostics, R60TX-2) containing 1× halt protease inhibitor cocktail of (Thermo Scientific, Halt™ Protease Inhibitor Cocktail, 78430) per well was added to cells to provide a “cell lysate”. The plate was placed on a shaker at 4° C. for 30 minutes, then stored at −80° C.
Cell lysate samples (25 μL) were transferred to the antibody-coated MSD plate and incubated overnight at 4° C. After removal of the lysates, the plate was washed three times with wash buffer, and 25 μL of Ataxin 3 recombinant rabbit monoclonal antibody (Invitrogen, #702788) secondary antibody (diluted to 0.25 μg/mL in 0.05% TWEEN®-20 in blocking buffer) was added to each well and incubated with shaking for 1-2 h at room temperature. Following incubation with the secondary antibody, the wells were rinsed with wash buffer and then 25 μL of Anti Rabbit Antibody Goat SULFO-TAG Labeled (Meso Scale Diagnostics, R32AB-1) detecting antibody (diluted to 0.25 μg/mL in 0.05% TWEEN®-20 in blocking buffer) was added to each well and incubated with shaking for 1 h at room temperature. After rinsing three times with wash buffer, 150 μL of Read Buffer T with surfactant (tris-based buffer containing tripropylamine, Meso Scale Diagnostics, R92TC-1) were added to each empty well, and the plate was imaged on a SI 6000 imager (MSD) according to manufacturers' instructions provided for 96- or 384-well plates.

For assay [2], the system named is ATXN3 Pre-mRNA (exon 4 skipping). Put plainly: RT-qPCR Assay to Quantify Exon 4 Skipping in ATXN3 Pre-mRNA in Cells. It counts as cell-based. Conditions: cells incubated with compound 24 h, normalised to GAPDH, 7-point concentration curve. The method, then: as §1
Cells were thawed and incubated in cell culture media (DMEM, 10% FBS, and 1% antibiotic cocktail) for 72 h. Cells were trypsinized, counted, and re-suspended to a concentration of 100,000 cells/mL in cell culture media. A 100 μL aliquot of the cell suspensions were plated at 10,000 cells per well in the compound containing 96 well microtiter plate and incubated for in a cell culture incubator (37° C., 5% CO2, 100% relative humidity).
After 24 h, media was aspirated from the cells and 50 μL of the RCL2 lysis buffer (10 mM Tris-HCL pH 7.4, 150 mM NaCl, 0.33% IGEPAL® CA-630) was added to each well and incubated at room temperature for 1 min. Chilled nuclease free water (50 μL per well) was added and the plates were immediately transferred on ice. After 1 min on ice, plates were frozen at −80° C. overnight.
Preparation of RT-qPCR Reaction Mixture:
An aliquot of 2 μL/well of the cell lysates was transferred using the liquid handler to the Armadillo 384-Well PCR plate containing 8 μL/well of the RT-qPCR reaction mixture that was prepared as detailed above. The plates were then sealed with MicroAmp™ Optical Adhesive Film followed by spinning down for 1 min and placed in the CFX384 thermocycler (BioRad).
The RT-qPCR was carried out at the following temperatures for the indicated time: • Step 1: 48° C. (30 min) • Step 2: 95° C. (10 min) • Step 3: 95° C. (15 sec) • Step 4: 60° C. (1 min); then, repeated Steps 3 and 4 for a total of 40 cycles.
The percent exon 4 skipping was calculated for each dose of compound treatment using Equations 1 and 2.
Data were fit to a dose response curve and the IC50 was interpolated using XLfit® statistical and curve fitting package.
An IC50 value between >2.0 μM and ≤3.0 μM is indicated by one star (*). […] IC50 value between >0.5 μM and ≤1.0 μM is indicated by four stars (****). An IC50 value ≤0.5 μM is indicated by five stars (*****).
(Quantitative PCR measures a nucleic acid by following its amplification.)

A value given as a limit tells only on which side of the number the result lay.

On to `Cc1c(C[C@H](C)N)sc2c(NCc3ccnn3C)nc(Cl)nc12` [Cpd 81, 6-[(2S)-2-aminopropyl]-2-chloro-7-methyl-N-[(1-methyl-1H-pyrazol-5-yl)methyl]thieno[3,2-d]pyrimidin-4-amine], for which, in assay [1], the “IC50 (average, total ATXN3 protein)” value is “inactive”. Also, the “IC50 (exon 4 skipping in ATXN3 pre-mRNA)” value in assay [2] is “inactive”.
As for `C[C@H](N)Cc1sc2c(NCc3ccncc3F)nc(Cl)nc2c1Br` [Cpd 68, 6-[(2S)-2-aminopropyl]-7-bromo-2-chloro-N-[(3-fluoropyridin-4-yl)methyl]thieno[3,2-d]pyrimidin-4-amine], the half-inhibitory concentration (IC50) in assay [1] and in assay [2] was not above 500 nM each time.
